# Laboratory results taken from PubChem BioAssay (NCI).
#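 How tested: cells in 96-well plates exposed to compound for 48 hours at five concentrations. GI50 = concentration required for 50% inhibition of growth. Definition used: TGI = concentration required for complete inhibition of growth.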
# Experiments:
# Test in all cases: DTP human tumour cell line panel, 48 h
# 786-0 renal = test system: 786-0 renal
# A498 renal = test system: A498 renal
# A549 NSCLC = test system: A549 NSCLC
# ACHN renal = test system: ACHN renal
# BT-549 breast = test system: BT-549 breast
# CAKI-1 renal = test system: CAKI-1 renal
# CCRF-CEM leukemia = test system: CCRF-CEM leukemia
# COLO 205 colon = test system: COLO 205 colon
# DU-145 prostate = test system: DU-145 prostate
# EKVX NSCLC = test system: EKVX NSCLC
# HCC-2998 colon = test system: HCC-2998 colon
# HCT-116 colon = test system: HCT-116 colon
# HCT-15 colon = test system: HCT-15 colon
# HL-60(TB) leukemia = test system: HL-60(TB) leukemia
# HOP-62 NSCLC = test system: HOP-62 NSCLC
# HOP-92 NSCLC = test system: HOP-92 NSCLC
# HS 578T breast = test system: HS 578T breast
# HT29 colon = test system: HT29 colon
# IGROV1 ovarian = test system: IGROV1 ovarian
# K-562 leukemia = test system: K-562 leukemia
# KM12 colon = test system: KM12 colon
# LOX IMVI melanoma = test system: LOX IMVI melanoma
# M14 melanoma = test system: M14 melanoma
# MCF7 breast = test system: MCF7 breast
# MDA-MB-231 breast = test system: MDA-MB-231 breast
# MDA-MB-435 = test system: MDA-MB-435
# MOLT-4 leukemia = test system: MOLT-4 leukemia
# NCI-H226 lung = test system: NCI-H226 lung
# NCI-H23 lung = test system: NCI-H23 lung
# NCI-H460 lung = test system: NCI-H460 lung
# NCI-H522 lung = test system: NCI-H522 lung
# NCI/ADR-RES ovarian = test system: NCI/ADR-RES ovarian
# OVCAR-3 ovarian = test system: OVCAR-3 ovarian
# OVCAR-4 ovarian = test system: OVCAR-4 ovarian
# OVCAR-5 ovarian = test system: OVCAR-5 ovarian
# OVCAR-8 ovarian = test system: OVCAR-8 ovarian
# PC-3 prostate = test system: PC-3 prostate
# RPMI-8226 leukemia = test system: RPMI-8226 leukemia
# RXF 393 renal = test system: RXF 393 renal
# SF-268 CNS = test system: SF-268 CNS
# SF-295 CNS = test system: SF-295 CNS
# SF-539 CNS = test system: SF-539 CNS
# SK-MEL-2 melanoma = test system: SK-MEL-2 melanoma
# SK-MEL-28 melanoma = test system: SK-MEL-28 melanoma
# SK-MEL-5 melanoma = test system: SK-MEL-5 melanoma
# SK-OV-3 ovarian = test system: SK-OV-3 ovarian
# SN12C renal = test system: SN12C renal
# SNB-19 CNS = test system: SNB-19 CNS
# SNB-75 CNS = test system: SNB-75 CNS
# SR leukemia = test system: SR leukemia
# SW-620 colon = test system: SW-620 colon
# T-47D breast = test system: T-47D breast
# TK-10 renal = test system: TK-10 renal
# U251 CNS = test system: U251 CNS
# UACC-257 melanoma = test system: UACC-257 melanoma
# UACC-62 melanoma = test system: UACC-62 melanoma
# UO-31 renal = test system: UO-31 renal
compound,measurement,setting,value
Cc1ccc(S(=O)(=O)Oc2ccccc2-c2ccccc2)cc1,GI50,786-0 renal,8.26 µM
same,TGI,786-0 renal,> 100 µM
same,GI50,A498 renal,1.42 µM
same,TGI,A498 renal,8.94 µM
same,GI50,A549 NSCLC,4.4 µM
same,TGI,A549 NSCLC,> 100 µM
same,GI50,ACHN renal,6.81 µM
same,TGI,ACHN renal,> 100 µM
same,GI50,BT-549 breast,8.41 µM
same,TGI,BT-549 breast,> 100 µM
same,GI50,CAKI-1 renal,1.3 µM
same,TGI,CAKI-1 renal,> 25.5 µM
same,GI50,CCRF-CEM leukemia,2.48 µM
same,TGI,CCRF-CEM leukemia,> 100 µM
same,GI50,COLO 205 colon,2.25 µM
same,TGI,COLO 205 colon,8.41 µM
same,GI50,DU-145 prostate,2.87 µM
same,TGI,DU-145 prostate,> 29.8 µM
same,GI50,EKVX NSCLC,3.21 µM
same,TGI,EKVX NSCLC,> 100 µM
same,GI50,HCC-2998 colon,3.87 µM
same,TGI,HCC-2998 colon,> 72.7 µM
same,GI50,HCT-116 colon,2.85 µM
same,TGI,HCT-116 colon,> 100 µM
same,GI50,HCT-15 colon,1.62 µM
same,TGI,HCT-15 colon,> 100 µM
same,GI50,HL-60(TB) leukemia,2.12 µM
same,TGI,HL-60(TB) leukemia,> 100 µM
same,GI50,HOP-62 NSCLC,4.24 µM
same,TGI,HOP-62 NSCLC,> 100 µM
same,GI50,HOP-92 NSCLC,5.73 µM
same,TGI,HOP-92 NSCLC,> 100 µM
same,GI50,HS 578T breast,3.09 µM
same,TGI,HS 578T breast,> 26.9 µM
same,GI50,HT29 colon,1.18 µM
same,TGI,HT29 colon,> 43.2 µM
same,GI50,IGROV1 ovarian,2.16 µM
same,TGI,IGROV1 ovarian,> 100 µM
same,GI50,K-562 leukemia,0.524 µM
same,TGI,K-562 leukemia,> 100 µM
same,GI50,KM12 colon,0.743 µM
same,TGI,KM12 colon,> 100 µM
same,GI50,LOX IMVI melanoma,4.22 µM
same,TGI,LOX IMVI melanoma,> 100 µM
same,GI50,M14 melanoma,2.05 µM
same,TGI,M14 melanoma,> 86.1 µM
same,GI50,MCF7 breast,2.47 µM
same,TGI,MCF7 breast,> 100 µM
same,GI50,MDA-MB-231 breast,3.7 µM
same,TGI,MDA-MB-231 breast,> 100 µM
same,GI50,MDA-MB-435,0.249 µM
same,TGI,MDA-MB-435,0.834 µM
same,GI50,MOLT-4 leukemia,3.9 µM
same,TGI,MOLT-4 leukemia,> 100 µM
same,GI50,NCI-H226 lung,21.2 µM
same,TGI,NCI-H226 lung,> 100 µM
same,GI50,NCI-H23 lung,5.21 µM
same,TGI,NCI-H23 lung,> 100 µM
same,GI50,NCI-H460 lung,2.32 µM
same,TGI,NCI-H460 lung,> 100 µM
same,GI50,NCI-H522 lung,0.542 µM
same,TGI,NCI-H522 lung,7.83 µM
same,GI50,NCI/ADR-RES ovarian,1.13 µM
same,TGI,NCI/ADR-RES ovarian,> 28.9 µM
same,GI50,OVCAR-3 ovarian,1.81 µM
same,TGI,OVCAR-3 ovarian,6.94 µM
same,GI50,OVCAR-4 ovarian,7.13 µM
same,TGI,OVCAR-4 ovarian,> 100 µM
same,GI50,OVCAR-5 ovarian,8.26 µM
same,TGI,OVCAR-5 ovarian,> 100 µM
same,GI50,OVCAR-8 ovarian,4.86 µM
same,TGI,OVCAR-8 ovarian,> 100 µM
same,GI50,PC-3 prostate,3.52 µM
same,TGI,PC-3 prostate,> 100 µM
same,GI50,RPMI-8226 leukemia,3.42 µM
same,TGI,RPMI-8226 leukemia,> 55.6 µM
same,GI50,RXF 393 renal,2.31 µM
same,TGI,RXF 393 renal,> 27.7 µM
same,GI50,SF-268 CNS,5.95 µM
same,TGI,SF-268 CNS,> 100 µM
same,GI50,SF-295 CNS,0.702 µM
same,TGI,SF-295 CNS,3.3 µM
same,GI50,SF-539 CNS,2.38 µM
same,TGI,SF-539 CNS,8.1 µM
same,GI50,SK-MEL-2 melanoma,6.55 µM
same,TGI,SK-MEL-2 melanoma,> 26.1 µM
same,GI50,SK-MEL-28 melanoma,7.77 µM
same,TGI,SK-MEL-28 melanoma,> 100 µM
same,GI50,SK-MEL-5 melanoma,2.98 µM
same,TGI,SK-MEL-5 melanoma,> 100 µM
same,GI50,SK-OV-3 ovarian,3.24 µM
same,TGI,SK-OV-3 ovarian,> 45.8 µM
same,GI50,SN12C renal,6.18 µM
same,TGI,SN12C renal,> 100 µM
same,GI50,SNB-19 CNS,5.24 µM
same,TGI,SNB-19 CNS,> 100 µM
same,GI50,SNB-75 CNS,2.63 µM
same,TGI,SNB-75 CNS,> 29 µM
same,GI50,SR leukemia,0.465 µM
same,TGI,SR leukemia,> 70.7 µM
same,GI50,SW-620 colon,1.03 µM
same,TGI,SW-620 colon,> 100 µM
same,GI50,T-47D breast,5.14 µM
same,TGI,T-47D breast,> 100 µM
same,GI50,TK-10 renal,12 µM
same,TGI,TK-10 renal,> 100 µM
same,GI50,U251 CNS,3.81 µM
same,TGI,U251 CNS,> 100 µM
same,GI50,UACC-257 melanoma,4.35 µM
same,TGI,UACC-257 melanoma,> 100 µM
same,GI50,UACC-62 melanoma,2.3 µM
same,TGI,UACC-62 melanoma,> 100 µM
same,GI50,UO-31 renal,4.01 µM
same,TGI,UO-31 renal,> 75.7 µM
